# Data: patent US20090169540A1, “Use Of An Antagonist Of Epac For Treating Human Cardiac Hypertrophy” (priority 2005, published 2009)
# Read-outs that look alike come from different tables or passages of the source.
# What was measured:
# Rac [1] = experiment: Rac activation assay (Rac-GTP pull-down), primary rat ventricular cardiomyocytes; format: cell-based
# Rac [2] = experiment: Rac activation assay (Rac-GTP pull-down), HL-1 atrial cells; format: cell-based, mouse
# Procedure: Rac activation was determined as above. […] Rac-GTP samples and total lysates were separated on SDS-PAGE gels and transferred onto a polyvinylidene difluoride (PVDF) membrane (Amersham Pharmacia Biotech).
# ANF promoter (ANF-Luc) = experiment: ANF-Luc reporter gene assay in neonatal cardiomyocytes; format: cell-based, rat; settings: 8-CPT 1 μM, compared to control cells
# Procedure: FIGS. 2A, 2C and 2D: Neonatal cardiomycoytes were transfected with ANF-Luc (FIG. 2A), SkM-α-actin-Luc (FIG. 2C) or c-fos-SRE-Luc (FIG. 2D) and EpacWT, RacG12V or the empty vector (mock) as control and treated or not with 8-CPT (1 μM). Two days after transfection, cells were assayed for luciferase activity. Results are expressed as percentage activation of control. Results are means±S.E.M. for 3 independent experiments performed in triplicates.
# In FIGS. 8A, 8B and 8C, cardiomyocytes infected with Ad.GFP (control), Ad.RacS17N, Ad.EpacWT, or Ad.EpacWT and Ad.RacS17N were transfected with NFAT-Luc, MEF2-Luc or ANF-Luc. Two days after, Luc activity was determined. Luc activity was normalized to control for each experiment, and were expressed as means±S.E.M of at least 3 separate experiments performed in triplicate
# The plasmid constructs were generously provided by the following: a −3003 bp fragment of the rat ANF promoter fused to the luciferase reporter gene (ANF-Luc) by Dr. K. Knowlton, Luciferase reporter genes linked to promoters for skeletal muscle α-actin (SkM-α-actin-Luc) and serum response element-regulated c-fos (c-fos-SRE-Luc) by Dr. M. D. Schneider, Epac1 plasmid constructs by Dr. J. Bos. […]
# [3] = tested on: neonatal rat ventricular myocytes; experiment: Sarcomeric / cytoskeletal organization by phalloidin staining, neonatal cardiomyocytes; format: cell-based; settings: 48 h; 8-CPT (1 mM) and PE (1 mM) as printed, in Ad.GFP cells; vs Ad.GFP alone
# [4] = tested on: neonatal rat ventricular myocytes; experiment: Cell surface area by computer-assisted planimetry, neonatal cardiomyocytes; format: cell-based; settings: for Cell surface area: 8-CPT 1 μM or PE 1 μM or adenovirus, compared to control Ad.GFP
# [5] = tested on: neonatal rat ventricular myocytes; experiment: [3H]-leucine incorporation (protein synthesis), neonatal cardiomyocytes; format: cell-based; settings: 8-CPT 1 μM, PE 1 μM or adenovirus
# [6] = tested on: neonatal rat ventricular myocytes; format: cell-based
# [7] = cited from earlier work
# MEF2 (MEF2-Luc) = experiment: MEF2-Luc transcriptional activity in cardiomyocytes; format: cell-based, rat; settings: cells infected with Ad.EpacWT or Ad.Epac-DcAMP; CsA 0.5 μM, KN-93 1 μM, or co-infection
smiles,measurement,setting,value
"CO[C@@H]1[C@@H]2OP(=O)(O)OC[C@H]2O[C@H]1n1c(Sc2ccc(Cl)cc2)nc2c(N)ncnc21 [8-CPT, 8-(4-chloro-phenylthio)-2′-O-methyladenosine-3′-5′cyclic monophosphate]",Rac activation in cells infected with Ad.EpacWT,Rac [1]; Ad.EpacWT-infected cells treated with 8-CPT 1 μM for 10 min,further increased
same,Rac activation (Rac-GTP),"Rac [1]; activation of endogenous Epac, 8-CPT 1 μM, 10 min, rat cardiac myocytes",increased Rac activation
same,Amount of Rac-GTP / Rac activation,"Rac [2]; HL-1 adult mouse atrial cells, 100 μM, 10 min exposure",strong increase in the amount of Rac-GTP
same,Treatment time upon which 8-CPT-induced Rac activation was detected,"Rac [2]; HL-1 cells, 8-CPT 10 μM time course (FIG. 1C)",5 min
same,Activation of the ANF-Luc reporter gene,ANF promoter (ANF-Luc),three fold activation
same,Cytoskeletal (F-actin) / sarcomeric organization,[3],apparent increase of the F-actin meshwork and an heavily striated appearance
same,Cell surface area,[4]; 2 days,two fold increase
same,Effect of Ad.EpacWT on cell surface area in the presence of 8-CPT,[4]; Ad.EpacWT-infected cells plus 8-CPT 1 μM,not further increased
same,Protein synthesis ([3H]-leucine uptake),[5],approximate two fold increase
same,Frequency of spontaneous Ca2+ transients,[6],0.51±0.04 Hz
same,Frequency of spontaneous Ca2+ transients,"[6]; 8-CPT 100 nM, physiological external [Ca2+], n=13",0.40±0.05 Hz
same,Ca2+ spike frequency,"[6]; 8-CPT 10 μM in the presence of 20 mM external Cs+, n=8",1.25±0.35 Hz
same,Effect on Ca2+ transients,"[6]; 8-CPT 10 μM, absence of external Ca2+",had no effect
same,Amplitude of Ca2+ spikes,"[6]; 8-CPT 10 μM, physiological external [Ca2+]",without changing the amplitude of the spikes
same,Ca2+ spike frequency,"[6]; 8-CPT 100 μM, absence of external Ca2+, n=4",0.12±0.02 Hz
same,Ca2+ spike frequency,"[6]; 8-CPT 100 μM, absence of external Ca2+, presence of H89 1 μM, n=8",0.23±0.049 Hz
CCCCc1oc2ccccc2c1C(=O)c1cc(I)c(OCCN(CC)CC)c(I)c1 [Amiodarone],Hypothyroidism incidence,"[7]; as high as, in some series",8%-19%
same,Hyperthyroidism incidence,"[7]; human, in vivo",about 2%
same,Liver function test abnormalities incidence,"[7]; human, in vivo",4%-9%
same,Other serious side effect,"[7]; human, in vivo","optic neuropathy, which can lead to blindness"
same,Proarrhythmia incidence,"[7]; human, in vivo",2%-5%
same,Hypothyroidism incidence,[7]; in some cases,2%-4%
O=S(=O)(NCCNC/C=C/c1ccc(Br)cc1)c1cccc2cnccc12 [H89],8-CPT-induced increase in Ca2+ transients frequency,"[6]; H89 1 μM, 8-CPT 100 μM, absence of external Ca2+",failed to block
COc1ccc(S(=O)(=O)N(CCO)c2ccccc2CN(C)C/C=C/c2ccc(Cl)cc2)cc1 [KN-93],Ad.Epac-DcAMP-induced increase in cell surface area,"[4]; KN-93 1 μM, 2 days",significantly decreased
same,Epac-induced MEF2 transcriptional (luciferase) activity,MEF2 (MEF2-Luc),completely blocked
"CNC[C@H](O)c1cccc(O)c1 [PE, phenylephrine]",Cytoskeletal (F-actin) / sarcomeric organization,[3],comparable
same,Cell surface area,[4]; 2 days,Identical results
same,Protein synthesis ([3H]-leucine uptake),[5],approximate two fold increase
C[C@H](CCC(=O)O)C[C@H](C)C[C@H](C)C(=O)/C=C(\O)[C@H](C)C[C@H](C)C/C=C/[C@@H](C)[C@@H](O)[C@@H](C)[C@@H](O)C[C@@H]1CC[C@@](C)([C@H]2CC[C@@](C)([C@@H](C)O)O2)O1 [ionomycin],Effect on Rac activation relative to positive control PE (1 μM),Rac [1]; ionomycin 1 μM vs PE 1 μM 15 min,as potent as PE
same,Rac activation,"Rac [1]; ionomycin 1 μM, different times of incubation",increased Rac activation in a time dependent manner
